{
  "source": "patent US20250281498A1",
  "about": "“FUSED AMINO PYRIMIDINE COMPOUNDS FOR TREATMENT OF SYNUCLEINOPATHIES AND TDP-43 PROTEINOPATHIES” (Ovid Therapeutics Inc., priority 2024, published 2025)",
  "key": {"[1]": {"target": "T1, KCC2 (Homo sapiens, UniProt Q9H2X9)", "T1 construct": "expressed in transfected cells; host or cells: HEK-293 (ATCC CRL-1573)", "T1 sequence (Q9H2X9 1-1116 isoform Q9H2X9-2)": "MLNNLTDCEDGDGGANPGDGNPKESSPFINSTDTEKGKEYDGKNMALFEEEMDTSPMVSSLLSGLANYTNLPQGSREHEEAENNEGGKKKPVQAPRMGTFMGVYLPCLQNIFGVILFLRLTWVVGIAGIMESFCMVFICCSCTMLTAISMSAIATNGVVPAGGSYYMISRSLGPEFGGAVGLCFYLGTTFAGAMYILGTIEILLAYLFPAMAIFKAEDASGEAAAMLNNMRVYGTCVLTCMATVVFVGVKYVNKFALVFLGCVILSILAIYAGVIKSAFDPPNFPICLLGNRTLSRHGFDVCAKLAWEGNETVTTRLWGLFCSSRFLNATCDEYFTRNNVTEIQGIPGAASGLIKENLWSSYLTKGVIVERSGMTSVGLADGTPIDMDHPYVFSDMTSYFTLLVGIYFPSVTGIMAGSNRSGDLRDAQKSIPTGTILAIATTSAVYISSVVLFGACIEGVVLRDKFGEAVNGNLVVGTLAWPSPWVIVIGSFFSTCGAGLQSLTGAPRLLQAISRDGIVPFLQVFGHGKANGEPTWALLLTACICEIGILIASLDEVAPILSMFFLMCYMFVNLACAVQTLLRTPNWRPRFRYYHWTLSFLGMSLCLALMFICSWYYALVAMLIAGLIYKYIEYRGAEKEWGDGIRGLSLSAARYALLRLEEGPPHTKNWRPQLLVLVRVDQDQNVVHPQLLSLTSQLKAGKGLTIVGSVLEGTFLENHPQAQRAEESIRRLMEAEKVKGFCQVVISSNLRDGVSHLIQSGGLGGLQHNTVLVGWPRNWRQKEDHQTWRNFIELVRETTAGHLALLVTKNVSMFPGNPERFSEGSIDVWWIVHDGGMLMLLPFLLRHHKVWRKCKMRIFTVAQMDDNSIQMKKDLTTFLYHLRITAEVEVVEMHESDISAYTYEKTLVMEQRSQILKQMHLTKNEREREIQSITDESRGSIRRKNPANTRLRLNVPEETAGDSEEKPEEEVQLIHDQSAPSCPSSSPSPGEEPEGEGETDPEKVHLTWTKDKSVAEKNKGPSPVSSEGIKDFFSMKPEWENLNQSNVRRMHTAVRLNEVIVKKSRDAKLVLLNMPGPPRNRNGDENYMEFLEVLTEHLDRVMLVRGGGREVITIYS", "experiment": "biotinylation, plasma membrane level of KCC2 in HEK-293 cells", "format": "cell-based", "conditions": "15 min", "experimental": "Cell Culture and biotinylation. HEK-293 cells were purchased from ATCC (CRL-1573) and transfected with human KCC2 and GFP expression plasmids using Lipofectamine 2000. Cells were utilized for experimentation 48-72 h following transfection. Cells were biotinylated at 4° C. using NHS-Biotin. Following lysis and purification on immobilized avidin beads, cell surface and total fractions were subject to immunoblotting as outlined previously (Conway et al., 2017, supra).\nThe reliability of the biotinylation procedure was assessed via immunoblotting with antibodies against the cytosolic protein actin. Actin was present in the total lysates but was absent from the surface fractions (FIG. 2C)."}, "[2]": {"test_system": "18-20 Div hippocampal neurons", "experiment": "gramicidin-perforated patch-clamp recording of EGABA in hippocampal neurons", "format": "cell-based, Sprague Dawley", "conditions": "300 nM", "experimental": "Neuronal Cultures. Hippocampal neurons were prepared from Sprague Dawley E18 embryos and plated at 450,000 per dish and maintained at 37° C. in a humidified 5% CO2 incubator for 10-25 days before experimentation (Lee et al., Nat. Neurosci. 14, 736-743 (2011)).\nAt this developmental stage, GABAAR receptor activation leads to hyperpolarization, a phenomenon critically dependent upon KCC2 (Kontou et al., J Biol Chem, 100364 (2021)).\nNeuronal Patch clamp assays. Neuronal cell culture recordings were performed in bath saline at 34° C. For gramicidin perforated-patch experiments, pipettes contained (in mM): 140 KCl and 10 HEPES, pH 7.4 KOH. For whole-cell experiments, pipettes contained (in mM): 115 K-meth-SO4, 30 KCl, 2 Mg-ATP, 4 Na-ATP, 0.4 Na-GTP, and 10 HEPES, pH 7.4 KOH. Bath saline contained the following (in mM): 140 NaCl, 2.5 KCl, 2.5 CaCl2, 2.5 MgCl2, 10 HEPES, and 11 glucose, pH 7.4 NaOH (Kontou et al., 2021, supra). All compound solutions were applied to cells using a three-barreled 700 μm pipe positioned just above the cell (Warner Instruments). […] All voltages from whole-cell experiments were corrected offline using a calculated liquid junction potential value (13.6 mV) in Clampex (Molecular Devices). For gramicidin perforated-patch experiments, intracellular Cl^− values were back-calculated using measured EGABA values and the Nernst equation: […]"}, "[3]": {"parameters": "species or system mice", "conditions": "in vivo"}, "[4]": {"test_system": "neuronal cell death in the hippocampus", "experiment": "neuronal cell death in the hippocampus of mice treated with Compound A and diazepam", "format": "in vivo", "conditions": "Compound A and diazepam vs diazepam alone"}},
  "data": [
    {"smiles": "C[C@@H]1CN(c2nc3c(c(Nc4ccc(C5CCCCC5)cc4)n2)COC3)CCO1", "note": "[Compound A, (R)—N-(4-cyclohexylphenyl)-2-(2-methylmorpholino)-5,7-dihydrofuro[3,4-d]pyrimidin-4-amine]", "values": [
      {"measurement": "level of KCC2 on the plasma membrane (surface/total)", "setting": "[1]; 0.3 μM", "result": "94.5±8.4 % of control"},
      {"measurement": "level of KCC2 on the plasma membrane (surface/total)", "setting": "[1]; 3 μM", "result": "104.7±8.4 % of control"},
      {"measurement": "reduction in neuronal Cl−", "setting": "[2]; 15 min, calculated from EGABA", "result": "2.2 ± 0.6", "unit": "mM"},
      {"measurement": "EGABA after treatment", "setting": "[2]; at 15 min (from −75±3.1 at 0 min), bumetanide and TTX present", "result": "−85.1±4.2", "unit": "mV"},
      {"measurement": "gross effects on mouse behavior in the open field", "setting": "[3]", "result": "no gross effects on mouse behavior"},
      {"measurement": "total distance traveled in open field", "setting": "[3]; mouse, sc, 50 mg/kg", "result": "6134.2±235.3", "unit": "cm"},
      {"measurement": "neuronal cell death in the hippocampus", "setting": "[4]", "result": "significantly reduced"}
    ]}
  ]
}
